Our source for the MIC, inhibition in vivo and Inhibition values is ChEMBL document CHEMBL1130815, “Anti-Helicobacter pylori agents. 2. Structure activity relationships in a new series of 2-alkylguanidino-4-furylthiazoles” (1998).

One assay relates to Helicobacter pylori. Kind of assay: Compound was evaluated for antimicrobial activity against Helicobacter pylori. It counts as functional.
A further assay has as its system Rattus norvegicus. Briefly: Inhibition of histamine-stimulated gastric acid secretion in lumen-perfused stomach of the anaesthetized rats when administered 1 mg/kg intravenously. The settings on record: route intravenous. In kind it is functional.
The species entered for a further assay is Cavia porcellus. Kind of assay: Inhibition of histamine-stimulated chronotropic response in the isolated guinea pig right atrium at 1*10e-6 g/mL. In kind it is functional, Cardiac atrium.
A further assay has as its system Canis familiaris. Briefly: Compound was evaluated for the inhibition of gastrin-stimulated gastric acid secretion in conscious heidenhain pouch dogs when administered 1 mg/kg perorally. It counts as functional. The settings on record: Canis lupus familiaris, Stomach, route oral.
Another assay deals with Neisseria gonorrhoeae. Kind of assay: Compound was evaluated for antimicrobial activity against Neisseria gonorrhoeae. In kind it is functional.
Another assay deals with Campylobacter jejuni. Briefly: Compound was evaluated for antimicrobial activity against Campylobacter jejuni. In kind it is functional.
For another assay, the system named is Clostridium perfringens. Briefly: Compound was evaluated for antimicrobial activity against Clostridium perfringens. In kind it is functional.
In the next assay the test system is Neisseria meningitidis. Kind of assay: Compound was evaluated for antimicrobial activity against Neisseria meningitidis. In kind it is functional.
Another assay has as its system Bacteroides fragilis. Kind of assay: Compound was evaluated for antimicrobial activity against Bacteroides fragilis. In kind it is functional.
The next assay relates to Clostridioides difficile. Kind of assay: Compound was evaluated for antimicrobial activity against Clostridium difficile. In kind it is functional.

In brackets after ≈: the same amount, converted by molar mass. Some results are limits rather than exact numbers.

In turn, `CCOCC/N=C(\NCCOCC)Nc1nc(-c2ccc(CNC(C)=O)o2)cs1` had an MIC against Helicobacter pylori of 81 µg/mL (≈ 191 µM).

The molecule `CSCC/N=C(\N)Nc1nc(-c2ccc(CNC(C)=O)o2)cs1` returned an MIC in the assay on Helicobacter pylori of 1.67 µg/mL (≈ 4.72 µM).

In turn, `COCC/N=C(\N)Nc1nc(-c2ccc(CNC(C)=O)o2)cs1` returned a minimum inhibitory concentration (MIC) in the assay with Helicobacter pylori of 1.45 µg/mL (≈ 4.3 µM).

`C#CCNC(=N)Nc1nc(-c2ccc(CNC(C)=O)o2)cs1`: in the assay on Helicobacter pylori, inhibition of growth (MIC) required 8.2 µg/mL (≈ 25.8 µM).

Regarding `CN/C(=N\CCSCc1nc[nH]c1C)NC#N` [CIMETIDINE], the values for the inhibition in vivo at 1 mg/kg in the assay with Rattus norvegicus and in the assay with Canis familiaris were 22% and 53%, respectively. The same molecule showed an Inhibition in the assay filed under Cavia porcellus of 43%.

In turn, `CCCCOCC/N=C(\N)Nc1nc(-c2ccc(CNC(C)=O)o2)cs1` came in with a minimal inhibitory concentration (MIC) against Helicobacter pylori of 1.43 µg/mL (≈ 3.77 µM).

Consider `CC(=O)NCc1ccc(-c2csc(NC(=N)NCC3CC3)n2)o1`, for which, in the assay with Helicobacter pylori, it took 1.46 µg/mL (≈ 4.38 µM) to inhibit growth (MIC).

In the assay on Helicobacter pylori, `CC(=O)NCc1ccc(-c2csc(NC(=N)NC3CCCCC3)n2)o1` had a minimal inhibitory concentration (MIC) of 1.06 µg/mL (≈ 2.93 µM).

On to `CC1(C)S[C@@H]2[C@H](NC(=O)[C@H](N)c3ccc(O)cc3)C(=O)N2[C@H]1C(=O)O` [AMOXICILLIN], for which the minimal inhibitory concentration (MIC) is 7.7 µg/mL (≈ 21.1 µM) in the assay with Neisseria gonorrhoeae; 0.021 µg/mL (≈ 0.0575 µM) against Helicobacter pylori; 2.2 µg/mL (≈ 6.02 µM) in the assay on Campylobacter jejuni; 0.027 µg/mL (≈ 0.0739 µM) against Clostridium perfringens; 0.056 µg/mL (≈ 0.153 µM) in the assay on Neisseria meningitidis; 2.1 µg/mL (≈ 5.75 µM) against Bacteroides fragilis. Also, in the assay with Clostridioides difficile, the MIC came to 0.28 µg/mL (≈ 0.766 µM).

For the molecule `CC(=O)NCc1ccc(-c2csc(NC(=N)NCCN3CCCCC3)n2)o1`, inhibition of growth in the assay with Helicobacter pylori (MIC) required 27 µg/mL (≈ 69.1 µM).

In the assay with Helicobacter pylori, `C=CCNC(=N)Nc1nc(-c2ccc(CNC(C)=O)o2)cs1` had an MIC of 1.45 µg/mL (≈ 4.54 µM).

For `CCOCCCC/N=C(\N)Nc1nc(-c2ccc(CNC(C)=O)o2)cs1`, in the assay with Helicobacter pylori, inhibition of growth (MIC) required 1.1 µg/mL (≈ 2.9 µM).

For BISMUTH SUBSALICYLATE, the MIC with Neisseria gonorrhoeae is 4.7 µg/mL; in the assay on Helicobacter pylori, 8.7 µg/mL; against Campylobacter jejuni it was 7.4 µg/mL; in the assay with Clostridium perfringens, over 100 µg/mL; with Neisseria meningitidis, 12.5 µg/mL; in the assay on Bacteroides fragilis it was 50 µg/mL. In the assay on Clostridioides difficile, this molecule returned a minimum inhibitory concentration (MIC) of 50 µg/mL.

In turn, `CC(=O)NCc1ccc(-c2csc(NC(=N)NCCO)n2)o1` returned a minimal inhibitory concentration (MIC) in the assay on Helicobacter pylori of 34 µg/mL (≈ 105 µM).

Consider `Cc1ncc([N+](=O)[O-])n1CCO` [METRONIDAZOLE], for which the MIC in the assay with Neisseria gonorrhoeae is over 100 µg/mL; against Helicobacter pylori it was 5.4 µg/mL (≈ 31.6 µM); against Campylobacter jejuni, 30 µg/mL (≈ 175 µM); in the assay with Clostridium perfringens, 1.75 µg/mL (≈ 10.2 µM); in the assay on Neisseria meningitidis it was over 100 µg/mL; with Bacteroides fragilis, 0.59 µg/mL (≈ 3.45 µM). For the same molecule, it took 0.2 µg/mL (≈ 1.17 µM) to inhibit growth in the assay on Clostridioides difficile (MIC).

The term MIC denotes the lowest concentration found to suppress growth. A word on the inhibition in vivo: it is how much of the control response was suppressed. The Inhibition is the change of the read-out against control, counted positive when it falls. A higher Inhibition goes with strong suppression.
